Measured values taken from US6740637B1, “Chlorophyll and bacteriochlorophyll derivatives, their preparation and pharmaceutical compositions comprising them” (priority 1998, dated 2004).
pEC50: −log10 of the molar value.

How the values were obtained:
[1] = tested on: M2R cells; assay type: cell-based, mouse
Method: Alternatively, photodynamic toxicity was determined by [^3H] thymidine incorporation. In this case, changes in rates of [^3H] thymidine incorporation following PDT were performed as follows: Cell cultures (4-5×10^4 cells/well in about 40-50% confluency grown in 10% fetal bovine serum) were pulsed with 1μ Ci/ml thymidine [methyl-^3H] for 2 h at 37° C. Cultures were then washed twice with cold phosphate-buffered saline (PBS), treated with 7.5% ice cold trichloroacetic acid (TCA) for 30 min at 4° C., washed 2 times with ethanol. Cells were then dissolved in 0.3 ml of 1 M NaOH at 37° C. for 15 min. Samples of 100 μl were neutralized with 100 μl of 1N HCI and 4 ml of 0.1 M imidazole and counted in a 20:8 (vol/vol) xylene scintillator/Lumax mixture. […] Results are given as means±SD of triplicate determinations.

[2] = tested on: M2R melanoma cells; assay: PDT effect by clonogenic assay; assay type: cell-based, mouse
Method: The PDT effect was also determined by the clonogenic assay: 24 h after treatment of cells with various Chla-L-Ser-OMe concentrations and completion of the irradiation step, as described above (FIG. 12A), cultures were trypsinized and viable cell numbers determined by trypan blue exclusion. Appropriate dilutions were carried out and 250 cells/well were seeded into 6-well Costar plates. After 11-12 days in culture, the medium was aspirated and the colonies were fixed and stained with crystal violet in methanol and the number of colonies (more than 40 cells per colony) was counted under a dissecting microscope. […] Results are given as means±SD of triplicate determinations.

[3] = tested on: S. Aureus; assay type: cell-based, Staphylococcus Aureus
Method: (§1) 1. Preincubation: Bacteria or viruses were preincubated in the absence (untreated control) or presence of increasing concentration of photosensitizer for 1-2 h at room temperature or 37° C. in the dark.
(§2) 2. Illumination: One set of untreated control and one set of sensitizer treated samples were exposed to light for 5-10 min. An identical group was kept in the dark (dark control).
(§3) 3. Viability: samples of the controls and experimental groups were subjected for quantitation of survival and viability was calculated as per cent of untreated control.
(§4) The light source for illumination was a 250W halogen lamp. The light was focused on a glass support and filtered to eliminate light below 630 nm. The light intensity at the target level was 1500 μEinstein/cm^2. Illumination for Bchl-Ser against S. aureus was performed as described Example 17 herein.
(§5) Stocks of bacteria (S. aureus, B. subtilis, E. coli) were preserved on solid LB agar slants at 4° C. Two hours prior to the experiment, bacteria were transferred to liquid LB media and grown at 37° C. with continuous shaking. P. Acnes (ATCC-CR 6919) bacteria were grown on agar 1053 reinforced clostridial medium (Oxoid CM 149 ) and incubated at 37° C. […]
(§6) Aliquots (20 or 30 μl) of bacterial suspensions were plated on LB agar plates for 24 h at 37° C. […] Colonies were counted and per cent viability was calculated from untreated control. […]

[4] = tested on: B. Subtilis; assay type: cell-based, Bacilus Subtilis
Method: as §1, §2, §3, §4, §5, §6

[5] = tested on: E.Coli; assay: PDT of bacteria with Chl-Ser, colony counting; assay type: cell-based, Escherichia Coli
Method: as §1, §2, §3, §4, §5, §6

[6] = tested on: Herpes simplex virus-1 (in infected Vero cells); assay: PDT of HSV-1 in infected Vero cells, plaque assay; assay type: cell-based, Herpes simplex virus type 1
Method: Vero cells (Kidney African Green Monkey cells) were grown in DMEM+F12 medium buffered with 25 mM HEPES supplemented with 10% foetal bovine serum (FBS).Herpes simplex virus type 1 (HSV-1) was isolated from the eye of a patient with dentritic keratitis and maintained in culture.
For viral infection Vero cells (2×10^4/well) were cultured at 37° C. for 2 days in 24 well microplates. The culture medium was replaced with fresh medium containing 2% FBS and the cells infected with HSV-1 (200 μl) at multiplicity of infection (MOI) of 1-3. The cells were further incubated at 37° C. for 3 days. The medium was collected and centrifuged for 5 min in a clinical centrifuge to remove cells and cell debris. The concentration of viral particle was determined as described below and the suspension was aliquoted and kept at −80° C. until used.
Vero cells were inoculated with 10 fold dilutions of HSV-1 and cultured for 2 h at 37° C. The medium was then replaced with fresh DMEM containing 2% FBS and 0.7% methylcellulose and the cells were further incubated for 3 days. The overlayer was then decanted and the cells fixed and stained with crystal violet. Virus induced plaques were manually counted and plaque forming units (PFU/ml) were calculated.
Vero cells were infected with HSV-1 and incubated for four hours. Cells were then further incubated in dark for 1 h without or with Chl-Ser at the indicated concentrations. Cells were then washed three times with medium and immediately illuminated for 10 min. Subsequently the cells were incubated for 3 days for viral multiplication and media collected for quantitation. The appropriate controls described above were included in each experiment.

In the case of `C=Cc1c(C)c2cc3nc(c4c5[n-]c(cc6nc(cc1[n-]2)C(C)=C6CC)c(C)c5C(=O)[C@@H]4C(=O)OC)[C@@H](CCC(=O)OC[C@H](N)C(=O)OC)[C@@H]3C.[Mg+2]` [Chla-L-Ser-OMe, L-seryl Methyl Ester Chlorophyllidea], the “[3H] thymidine incorporation without irradiation” value [1] was “not observed in the dark controls”, the “[3H] thymidine incorporation after PDT” value ([1]; 60 min with increasing concentrations, light source B, 24 h later) was “dose dependent reduction in the ability of the cells to incorporate [^3H] thymidine” and the “number of surviving cells (colonies) without irradiation” value ([2]; dark) was “not in the dark”. For the same compound, the “number of surviving cells (colonies) after PDT” value ([2]; irradiated, colonies counted after 11-12 days) was “reduced the number of surviving cells in a dose dependent manner”, the effect in dark [3] was “neither light alone nor Chl-Ser in dark showed any effect” and the effect in dark [4] was “neither light alone nor Chl-Ser in dark showed any effect”. The “concentration up to which phototoxicity could be detected, beyond which toxic in the dark” value [5] was about 5 µM, the “sensitivity to Chl-Ser and light” value [5] was “significant resistance” and the “concentration of maximal toxicity” value [6] was about 500 nM. For the same compound, the pEC50 ([6]; 1 h with Chl-Ser, illuminated 10 min, read-out: half maximal effect on viral survival) was about 6.82 and the “effect in the dark” value ([6]; same concentrations range, dark) was “no effect in the dark”.
